ChEMBL document CHEMBL3046329, “Sensitivity to silthiofam, tebuconazole and difenoconazole of Gaeumannomyces graminis var. tritici isolates from China” (Pest Manag Sci, 2012)
Values after ≈ are worked out from the molar mass of the structure shown.

Legend:
Assay type in all cases: functional, organism-based
[1] = test system: Gaeumannomyces tritici; test: Antifungal activity against sithiofam-sensitive Gaeumannomyces graminis var. tritici isolate JS08 expressing C2 genetic cluster assessed as reduction in fungal colony diameter after 4 days; conditions: isolate JS08, 96 h
[2] = test system: Gaeumannomyces tritici; test: Antifungal activity against sithiofam-resistant Gaeumannomyces graminis var. tritici isolate JS06 expressing C1 genetic cluster assessed as reduction in fungal colony diameter after 4 days; conditions: isolate JS06, 96 h
[3] = test system: Gaeumannomyces tritici; test: Antifungal activity against sithiofam-resistant Gaeumannomyces graminis var. tritici isolate JS04 expressing C1 genetic cluster assessed as reduction in fungal colony diameter after 4 days; conditions: isolate JS04, 96 h
[4] = test system: Gaeumannomyces tritici; test: Antifungal activity against sithiofam-sensitive Gaeumannomyces graminis var. tritici isolate JS03 expressing C1 genetic cluster assessed as reduction in fungal colony diameter after 4 days; conditions: isolate JS03, 96 h
[5] = test system: Gaeumannomyces tritici; test: Antifungal activity against sithiofam-sensitive Gaeumannomyces graminis var. tritici isolate JS02 expressing C1 genetic cluster assessed as reduction in fungal colony diameter after 4 days; conditions: isolate JS02, 96 h
[6] = test system: Gaeumannomyces tritici; test: Antifungal activity against sithiofam-resistant Gaeumannomyces graminis var. tritici isolate JS11 expressing C1 genetic cluster assessed as reduction in fungal colony diameter after 4 days; conditions: isolate JS11, 96 h
[7] = test system: Gaeumannomyces tritici; test: Antifungal activity against sithiofam-resistant Gaeumannomyces graminis var. tritici isolate JS09 expressing C1 genetic cluster assessed as reduction in fungal colony diameter after 4 days; conditions: isolate JS09, 96 h
[8] = test system: Gaeumannomyces tritici; test: Antifungal activity against sithiofam-sensitive Gaeumannomyces graminis var. tritici isolate HN21 expressing C2 genetic cluster assessed as reduction in fungal colony diameter after 4 days; conditions: isolate HN21, 96 h
[9] = test system: Gaeumannomyces tritici; test: Antifungal activity against sithiofam-sensitive Gaeumannomyces graminis var. tritici isolate HN19 expressing C2 genetic cluster assessed as reduction in fungal colony diameter after 4 days; conditions: isolate HN19, 96 h
[10] = test system: Gaeumannomyces tritici; test: Antifungal activity against sithiofam-sensitive Gaeumannomyces graminis var. tritici isolate HN29 expressing C2 genetic cluster assessed as reduction in fungal colony diameter after 4 days; conditions: isolate HN29, 96 h
[11] = test system: Gaeumannomyces tritici; test: Antifungal activity against sithiofam-sensitive Gaeumannomyces graminis var. tritici isolate HN26 expressing C2 genetic cluster assessed as reduction in fungal colony diameter after 4 days; conditions: isolate HN26, 96 h
[12] = test system: Gaeumannomyces tritici; test: Antifungal activity against sithiofam-sensitive Gaeumannomyces graminis var. tritici isolate HN23 expressing C2 genetic cluster assessed as reduction in fungal colony diameter after 4 days; conditions: isolate HN23, 96 h
[13] = test system: Gaeumannomyces tritici; test: Antifungal activity against sithiofam-sensitive Gaeumannomyces graminis var. tritici isolate HN22 expressing C2 genetic cluster assessed as reduction in fungal colony diameter after 4 days; conditions: isolate HN22, 96 h
[14] = test system: Gaeumannomyces tritici; test: Antifungal activity against sithiofam-sensitive Gaeumannomyces graminis var. tritici isolate HN14 expressing C2 genetic cluster assessed as reduction in fungal colony diameter after 4 days; conditions: isolate HN14, 96 h
[15] = test system: Gaeumannomyces tritici; test: Antifungal activity against sithiofam-resistant Gaeumannomyces graminis var. tritici isolate HN13 expressing C1 genetic cluster assessed as reduction in fungal colony diameter after 4 days; conditions: isolate HN13, 96 h
[16] = test system: Gaeumannomyces tritici; test: Antifungal activity against sithiofam-resistant Gaeumannomyces graminis var. tritici isolate HN10 expressing C1 genetic cluster assessed as reduction in fungal colony diameter after 4 days; conditions: isolate HN10, 96 h
[17] = test system: Gaeumannomyces tritici; test: Antifungal activity against sithiofam-resistant Gaeumannomyces graminis var. tritici isolate HN09 expressing C1 genetic cluster assessed as reduction in fungal colony diameter after 4 days; conditions: isolate HN09, 96 h
[18] = test system: Gaeumannomyces tritici; test: Antifungal activity against sithiofam-resistant Gaeumannomyces graminis var. tritici isolate HN06 expressing C1 genetic cluster assessed as reduction in fungal colony diameter after 4 days; conditions: isolate HN06, 96 h
[19] = test system: Gaeumannomyces tritici; test: Antifungal activity against sithiofam-resistant Gaeumannomyces graminis var. tritici isolate HN05 expressing C1 genetic cluster assessed as reduction in fungal colony diameter after 4 days; conditions: isolate HN05, 96 h
[20] = test system: Gaeumannomyces tritici; test: Antifungal activity against sithiofam-resistant Gaeumannomyces graminis var. tritici isolate HN04 expressing C1 genetic cluster assessed as reduction in fungal colony diameter after 4 days; conditions: isolate HN04, 96 h
[21] = test system: Gaeumannomyces tritici; test: Antifungal activity against sithiofam-resistant Gaeumannomyces graminis var. tritici isolate HN03 expressing C1 genetic cluster assessed as reduction in fungal colony diameter after 4 days; conditions: isolate HN03, 96 h
[22] = test system: Gaeumannomyces tritici; test: Antifungal activity against sithiofam-sensitive Gaeumannomyces graminis var. tritici isolate AH09 expressing C2 genetic cluster assessed as reduction in fungal colony diameter after 4 days; conditions: isolate AH09, 96 h
[23] = test system: Gaeumannomyces tritici; test: Antifungal activity against sithiofam-sensitive Gaeumannomyces graminis var. tritici isolate HN15 expressing C2 genetic cluster assessed as reduction in fungal colony diameter after 4 days; conditions: isolate HN15, 96 h
[24] = test system: Gaeumannomyces tritici; test: Antifungal activity against sithiofam-sensitive Gaeumannomyces graminis var. tritici isolate AH16 expressing C2 genetic cluster assessed as reduction in fungal colony diameter after 4 days; conditions: isolate AH16, 96 h
[25] = test system: Gaeumannomyces tritici; test: Antifungal activity against sithiofam-sensitive Gaeumannomyces graminis var. tritici isolate AH15 expressing C2 genetic cluster assessed as reduction in fungal colony diameter after 4 days; conditions: isolate AH15, 96 h
[26] = test system: Gaeumannomyces tritici; test: Antifungal activity against sithiofam-sensitive Gaeumannomyces graminis var. tritici isolate AH07 expressing C2 genetic cluster assessed as reduction in fungal colony diameter after 4 days; conditions: isolate AH07, 96 h
[27] = test system: Gaeumannomyces tritici; test: Antifungal activity against sithiofam-resistant Gaeumannomyces graminis var. tritici isolate AH06 expressing C1 genetic cluster assessed as reduction in fungal colony diameter after 4 days; conditions: isolate AH06, 96 h
[28] = test system: Gaeumannomyces tritici; test: Antifungal activity against sithiofam-sensitive Gaeumannomyces graminis var. tritici isolate AH05 expressing C2 genetic cluster assessed as reduction in fungal colony diameter after 4 days; conditions: isolate AH05, 96 h
[29] = test system: Gaeumannomyces tritici; test: Antifungal activity against sithiofam-sensitive Gaeumannomyces graminis var. tritici isolate AH04 expressing C2 genetic cluster assessed as reduction in fungal colony diameter after 4 days; conditions: isolate AH04, 96 h
[30] = test system: Gaeumannomyces tritici; test: Antifungal activity against sithiofam-sensitive Gaeumannomyces graminis var. tritici isolate AH03 expressing C2 genetic cluster assessed as reduction in fungal colony diameter after 4 days; conditions: isolate AH03, 96 h
[31] = test system: Gaeumannomyces tritici; test: Antifungal activity against sithiofam-resistant Gaeumannomyces graminis var. tritici isolate AH02 expressing C1 genetic cluster assessed as reduction in fungal colony diameter after 4 days; conditions: isolate AH02, 96 h
[32] = test system: Gaeumannomyces tritici; test: Antifungal activity against sithiofam-sensitive Gaeumannomyces graminis var. tritici isolate AH01 expressing C2 genetic cluster assessed as reduction in fungal colony diameter after 4 days; conditions: isolate AH01, 96 h
[33] = test system: Gaeumannomyces tritici; test: Antifungal activity against sithiofam-sensitive Gaeumannomyces graminis var. tritici isolate SD04 expressing C2 genetic cluster assessed as reduction in fungal colony diameter after 4 days; conditions: isolate SD04, 96 h
[34] = test system: Gaeumannomyces tritici; test: Antifungal activity against sithiofam-sensitive Gaeumannomyces graminis var. tritici isolate SD02 expressing C2 genetic cluster assessed as reduction in fungal colony diameter after 4 days; conditions: isolate SD02, 96 h
[35] = test system: Gaeumannomyces tritici; test: Antifungal activity against sithiofam-resistant Gaeumannomyces graminis var. tritici isolate AH14 expressing C1 genetic cluster assessed as reduction in fungal colony diameter after 4 days; conditions: isolate AH14, 96 h
[36] = test system: Gaeumannomyces tritici; test: Antifungal activity against sithiofam-resistant Gaeumannomyces graminis var. tritici isolate AH13 expressing C1 genetic cluster assessed as reduction in fungal colony diameter after 4 days; conditions: isolate AH13, 96 h
[37] = test system: Gaeumannomyces tritici; test: Antifungal activity against sithiofam-sensitive Gaeumannomyces graminis var. tritici isolate AH12 expressing C2 genetic cluster assessed as reduction in fungal colony diameter after 4 days; conditions: isolate AH12, 96 h

Question: `CC1COC(Cn2cncn2)(c2ccc(Oc3ccc(Cl)cc3)cc2Cl)O1` (configuration not stated) [DIFENOCONAZOLE] was tested. Which EC50 [1] did it give?
Answer: 0.163 µg/mL (≈ 0.4 µM)

Question: And the EC50 [2]?
Answer: 0.223 µg/mL (≈ 0.548 µM)

Question: And the EC50 [3]?
Answer: 0.198 µg/mL (≈ 0.486 µM)

Question: What about the EC50 [4] of the same compound?
Answer: 0.121 µg/mL (≈ 0.299 µM)

Question: And the EC50 [5]?
Answer: 0.28 µg/mL (≈ 0.689 µM)

Question: What about the EC50 [6] of the same compound?
Answer: 0.164 µg/mL (≈ 0.403 µM)

Question: And the EC50 [7]?
Answer: 0.13 µg/mL (≈ 0.32 µM)

Question: What about the EC50 [8] of the same compound?
Answer: 0.254 µg/mL (≈ 0.625 µM)

Question: What about the EC50 [9] of the same compound?
Answer: 0.326 µg/mL (≈ 0.803 µM)

Question: What about the EC50 [10] of the same compound?
Answer: 0.107 µg/mL (≈ 0.265 µM)

Question: And the EC50 [11]?
Answer: 0.366 µg/mL (≈ 0.902 µM)

Question: And the EC50 [12]?
Answer: 0.331 µg/mL (≈ 0.816 µM)

Question: And the EC50 [13]?
Answer: 0.0553 µg/mL (≈ 0.136 µM)

Question: What about the EC50 [14] of the same compound?
Answer: 0.0988 µg/mL (≈ 0.243 µM)

Question: What about the EC50 [15] of the same compound?
Answer: 0.223 µg/mL (≈ 0.548 µM)

Question: What about the EC50 [16] of the same compound?
Answer: 0.375 µg/mL (≈ 0.923 µM)

Question: And the EC50 [17]?
Answer: 0.159 µg/mL (≈ 0.392 µM)

Question: And the EC50 [18]?
Answer: 0.479 µg/mL (≈ 1.18 µM)

Question: And the EC50 [19]?
Answer: 0.261 µg/mL (≈ 0.643 µM)

Question: What about the EC50 [20] of the same compound?
Answer: 0.255 µg/mL (≈ 0.626 µM)

Question: What about the EC50 [21] of the same compound?
Answer: 0.336 µg/mL (≈ 0.827 µM)

Question: And the EC50 [22]?
Answer: 0.142 µg/mL (≈ 0.349 µM)

Question: What about the EC50 [23] of the same compound?
Answer: 0.0884 µg/mL (≈ 0.218 µM)

Question: What about the EC50 [24] of the same compound?
Answer: 0.126 µg/mL (≈ 0.309 µM)

Question: And the EC50 [25]?
Answer: 0.169 µg/mL (≈ 0.415 µM)

Question: And the EC50 [26]?
Answer: 0.539 µg/mL (≈ 1.33 µM)

Question: What about the EC50 [27] of the same compound?
Answer: 0.24 µg/mL (≈ 0.59 µM)

Question: What about the EC50 [28] of the same compound?
Answer: 0.0683 µg/mL (≈ 0.168 µM)

Question: What about the EC50 [29] of the same compound?
Answer: 0.668 µg/mL (≈ 1.64 µM)

Question: What about the EC50 [30] of the same compound?
Answer: 0.401 µg/mL (≈ 0.988 µM)

Question: What about the EC50 [31] of the same compound?
Answer: 0.273 µg/mL (≈ 0.672 µM)

Question: What about the EC50 [32] of the same compound?
Answer: 0.17 µg/mL (≈ 0.419 µM)

Question: What about the EC50 [33] of the same compound?
Answer: 0.0923 µg/mL (≈ 0.227 µM)

Question: What about the EC50 [34] of the same compound?
Answer: 0.335 µg/mL (≈ 0.825 µM)

Question: And the EC50 [35]?
Answer: 0.301 µg/mL (≈ 0.741 µM)

Question: What about the EC50 [36] of the same compound?
Answer: 0.288 µg/mL (≈ 0.708 µM)

Question: And the EC50 [37]?
Answer: 0.154 µg/mL (≈ 0.38 µM)
